The values below are quoted from earlier work in patent publication US20120172427A1, “(Z)-2-CYANO-3-HYDROXY-BUT-2-ENOIC ACID-(4'-TRIFLUOROMETHYLPHENYL)-AMIDE TABLET FORMULATIONS WITH IMPROVED STABILITY” (SANOFI, priority 2009, published 2012).

Molecules are shown by their SMILES.

Data set [1] deals with dihydroorotate dehydrogenase (Homo sapiens, UniProt Q02127). As to conditions: Bruneau et al., Biochem. J. 1998.
Data set [2] has as its system immune cells and cell lines. As to conditions: wide variety of immune cells and cell lines; literature.

Chain of dihydroorotate dehydrogenase (Q02127 whole entry): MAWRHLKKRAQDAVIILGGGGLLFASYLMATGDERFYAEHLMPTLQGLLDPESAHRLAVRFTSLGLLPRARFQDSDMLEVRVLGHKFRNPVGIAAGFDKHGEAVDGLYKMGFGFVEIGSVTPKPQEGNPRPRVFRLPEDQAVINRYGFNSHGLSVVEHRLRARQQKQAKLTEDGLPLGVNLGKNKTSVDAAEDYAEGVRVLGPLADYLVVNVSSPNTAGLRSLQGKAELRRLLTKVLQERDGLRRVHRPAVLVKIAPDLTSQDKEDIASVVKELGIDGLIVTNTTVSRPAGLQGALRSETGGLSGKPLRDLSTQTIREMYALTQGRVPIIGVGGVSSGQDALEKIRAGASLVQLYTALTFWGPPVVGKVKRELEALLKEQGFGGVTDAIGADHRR

Consider `C/C(O)=C(\C#N)C(=O)Nc1ccc(C(F)(F)F)cc1` [Teriflunomide, (Z)-2-cyano-3-hydroxy-but-2-enoic acid-(4′-trifluoromethylphenyl)-amide], for which the “inhibition of dihydroorotate dehydrogenase” value in data set [1] is given as “inhibits”. The antiproliferative effects result in data set [2] is on record as “antiproliferative effects”.
